Measured values as given in patent US20160222014A1, “COMPOUNDS FOR REGULATING FAK AND/OR SRC PATHWAYS” (ASANA BIOSCIENCES, LLC, priority 2013, published 2016).

Experiments:
[1] = biological target: JAK2 (Homo sapiens, UniProt O60674); assay: JAK2 biochemical potency; settings: read-out: JAK2 HTRF IC50
[2] = biological target: T1, Phospho Src(Y416) (Homo sapiens, UniProt P12931); assay: Phospho Src(Y416) Sandwich ELISA; assay type: cell-based; settings: Panc1; read-out: pSrc EC50 (μM) Panc1
T1 construct: endogenous in cells; host or cells: Panc1
Experimental: E. Phospho Src(Y416) Sandwich ELISA
Phospho Src(Y416) Sandwich ELISA kit was obtained from Cell Signaling Tech.
(i) Reagent Preparation • 1. All microwell strips were brought to rt before use. • 2. 1× Wash Buffer was prepared by diluting 20× Wash Buffer (included in each PathScan® Sandwich ELISA Kit) in MilliQ® water or equivalently purified water. • 3. 1× Cell Lysis Buffer from CST #9803: 20 mM Tris (pH 7.5), 150 mM NaCl, 1 mM ethylene diamine tetraacetate (EDTA), 1 mM ethylene glycol-bis(2-aminoethyl)-N,N,N′,N′-tetraacetic acid (EGTA), 1% Triton™ X-100, 2.5 mM sodium pyrophosphate, 1 mM b-glycerophosphate, 1 mM Na3VO4, 1 μg/mL leupeptin. This buffer was stored at 4° C. for short-term use (1-2 weeks).
(ii) Preparing Cell Lysates • 1. The media was aspirated. The cells were treated by adding fresh media containing inhibitor for 1 h. The compound of Example 214 was used as reference. • 2. The cells were harvested under non-denaturing conditions by removing media and rinsing cells once with ice-cold PBS. • 3. PBS was removed, 0.5 mL ice-cold 1× Cell Lysis Buffer plus 1 mM phenylmethylsulfonylfluoride (PMSF) was added to each plate (10 cm in diameter) and the plate incubated on ice for 5 min. • 4. The cells were scraped off of the plate, transferred to an appropriate tube, and kept on ice. • 5. The lysates were sonicated on ice. • 6. Microcentrifugation was performed for 10 min at 4° C. and the supernatant transferred to a new tube. The supernatant was the cell lysate and was stored at −80° C. in single-use aliquots.
(iii) Test Procedure • 1. After the microwell strips reached rt, the required number of microwells were broken off. The microwells were placed in the strip holder. Unused microwells were resealed and stored at 4° C. immediately. • 2. 100 μL of Sample Diluent (supplied in each PathScan® Sandwich ELISA Kit, blue color) was added to a micro centrifuge tube. 100 μL of cell lysate was transferred into the tube and vortexed for a few seconds. […] Individual data sheets for each kit provided information regarding an appropriate dilution factor for lysates and kit assay results. However, dilution factors were titrated when specific cell lysates are used. • 3. 100 μL of each diluted cell lysate were added to the appropriate well. It was then sealed with tape and pressed firmly onto top of microwells. The plate was incubated for 2 h at 37° C. Alternatively, the plate was incubated overnight at 4° C., which gave the best detection of target protein. • 4. The tape was gently removed and the wells washed: • a. The plate contents were discarded into a receptacle. • b. Each well was washed 4 times with 1× Wash Buffer, 200 μL. • c. For each wash, plates were struck on fresh towels hard enough to remove the residual solution in each well, but wells were not allowed to completely dry at any time. • d. The underside of all wells was cleaned with a lint-free tissue. • 5. 100 μL of Detection Antibody (green color) was added to each well, sealed with tape and the plate incubated for 1 h at 37° C. • 6. The wash procedure was repeated as in Step 4. • 7. 100 μL of HRP-linked secondary antibody (red color) was added to each well, sealed with tape and the plate incubated plate for 30 min at 37° C. • 8. The wash procedure was repeated as in Step 4. • 9. 100 μL of TMB Substrate was added to each well, sealed with tape and the plate incubated for 10 min at 37° C. or 30 min at 25° C. • 10. 100 μL of STOP Solution was added to each well and shaken gently for a few seconds. Initial color of positive reaction was blue, which changed to yellow upon addition of STOP Solution. • 11. The results were read. • a. Visual Determination—read within 30 min after adding STOP Solution. • b. Spectrophotometric Determination—the underside of wells were wiped with a lint-free tissue and absorbance read at 450 nm within 30 min after adding STOP Solution.

[3] = 100 mg/kg intraperitoneal, i.p.; cited from earlier work
[4] = tested on: tumor FAK Tyr-397 phosphorylation; settings: 100 mg/kg intraperitoneal, i.p.; cited from earlier work
[5] = tested on: 4T1 orthotopic breast carcinoma; settings: cited from earlier work
[6] = tested on: CSC population in 2 human breast cancer cell lines; settings: 2 human breast cancer cell lines in vitro and in xenografts; cited from earlier work
[7] = biological target: T2, FAK phosphorylated at Y397 in HEK-FAK cell line overexpressing human FL FAK protein (Homo sapiens, UniProt Q05397); assay: Cell based assay, Phospho-FAK ELISA; settings: HEK stb; read-out: pFAK EC50 (μM) HEK stb
T2 construct: expressed in transfected cells
How it was run: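 Stable HEK293 line overexpressing full-length human FAK, kept under 0.8 mg/mL Zeocin. In lysates, FAK Y397 autophosphorylation was measured by sandwich ELISA: total-FAK capture antibody, biotinylated pY397-specific detection antibody, streptavidin-HRP with TMB substrate.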

[8] = biological target: T3, AURKB (Aurora B) enzyme (Homo sapiens, UniProt Q96GD4); assay: Aurora B HTRF assay; assay type: biochemical; settings: read-out: AuroraB IC50
T3 construct: purchased Invitrogen PVR 130
How it was run: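 HTRF kinase assay with 5 nM Aurora B and 50 nM ULight-PLK (Ser137) peptide, with a reagent at 30 μM final; 1 h at rt. Reaction stopped with EDTA, and phospho-peptide detected with 2 nM Eu-anti-P-PLK(Ser137) antibody after 1 h at rt, read as HTRF.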

[9] = biological target: T4, recombinant human FAK1 (Homo sapiens, UniProt Q05397); assay: FAK1 HTRF assay; assay type: biochemical
T4 construct: fused on or other part: N-terminal 6xHis tag
How it was run: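 His-tagged human FAK1 (residues 692–end, Sf9-expressed), 10 nM final, with 0.5 μM biotinylated gastrin-precursor Tyr87 peptide and a 10 μM final reagent in pH 7.4 buffer, 45 min at rt. Detection used Eu anti-pTyr antibody plus SA-APC (665/620 nm). Compounds top concentration 10 μM; IC50 from % inhibition.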

[10] = tested on: FAK autophosphorylation at Tyrosine397 and Akt phosphorylation at Serine473; settings: 4T1 breast carcinoma; cited from earlier work
[11] = tested on: MIA PaCa-2 human pancreatic tumor; settings: oral administration, cited from earlier work
[12] = tested on: panel of pancreatic cancer cell lines; settings: read-out: anti-proliferative IC50; cited from earlier work
[13] = tested on: cell migration; settings: concomitant with inhibition of focal adhesion turnover; cited from earlier work
[14] = tested on: cell proliferation and apoptosis; settings: cited from earlier work
[15] = tested on: prostate and pancreatic cancer xenograft; settings: prostate and pancreatic cancer xenograft models; cited from earlier work

T4 sequence (Q05397 422-680 limits assumed): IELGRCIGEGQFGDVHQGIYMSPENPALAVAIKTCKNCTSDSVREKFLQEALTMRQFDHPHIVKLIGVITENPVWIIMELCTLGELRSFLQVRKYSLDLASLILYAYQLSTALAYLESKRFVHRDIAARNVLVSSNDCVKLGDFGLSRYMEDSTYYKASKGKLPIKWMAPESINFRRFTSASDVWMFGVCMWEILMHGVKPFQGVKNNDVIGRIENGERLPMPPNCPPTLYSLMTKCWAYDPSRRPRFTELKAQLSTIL
T1 sequence (P12931 whole entry): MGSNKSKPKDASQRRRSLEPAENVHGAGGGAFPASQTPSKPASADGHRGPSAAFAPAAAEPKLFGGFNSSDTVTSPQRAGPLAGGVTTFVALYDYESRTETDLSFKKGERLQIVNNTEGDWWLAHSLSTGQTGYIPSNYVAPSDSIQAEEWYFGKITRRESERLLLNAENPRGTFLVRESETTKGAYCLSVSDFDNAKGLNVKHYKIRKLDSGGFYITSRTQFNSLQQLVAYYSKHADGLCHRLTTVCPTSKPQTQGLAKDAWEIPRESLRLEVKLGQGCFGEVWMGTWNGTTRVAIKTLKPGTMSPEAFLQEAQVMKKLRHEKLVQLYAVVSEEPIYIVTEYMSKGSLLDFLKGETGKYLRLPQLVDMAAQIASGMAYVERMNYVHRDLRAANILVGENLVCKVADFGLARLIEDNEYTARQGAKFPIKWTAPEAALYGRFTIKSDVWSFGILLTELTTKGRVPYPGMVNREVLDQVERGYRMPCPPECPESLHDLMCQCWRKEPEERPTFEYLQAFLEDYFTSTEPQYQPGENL
Chain of JAK2 (O60674 whole entry, species assumed): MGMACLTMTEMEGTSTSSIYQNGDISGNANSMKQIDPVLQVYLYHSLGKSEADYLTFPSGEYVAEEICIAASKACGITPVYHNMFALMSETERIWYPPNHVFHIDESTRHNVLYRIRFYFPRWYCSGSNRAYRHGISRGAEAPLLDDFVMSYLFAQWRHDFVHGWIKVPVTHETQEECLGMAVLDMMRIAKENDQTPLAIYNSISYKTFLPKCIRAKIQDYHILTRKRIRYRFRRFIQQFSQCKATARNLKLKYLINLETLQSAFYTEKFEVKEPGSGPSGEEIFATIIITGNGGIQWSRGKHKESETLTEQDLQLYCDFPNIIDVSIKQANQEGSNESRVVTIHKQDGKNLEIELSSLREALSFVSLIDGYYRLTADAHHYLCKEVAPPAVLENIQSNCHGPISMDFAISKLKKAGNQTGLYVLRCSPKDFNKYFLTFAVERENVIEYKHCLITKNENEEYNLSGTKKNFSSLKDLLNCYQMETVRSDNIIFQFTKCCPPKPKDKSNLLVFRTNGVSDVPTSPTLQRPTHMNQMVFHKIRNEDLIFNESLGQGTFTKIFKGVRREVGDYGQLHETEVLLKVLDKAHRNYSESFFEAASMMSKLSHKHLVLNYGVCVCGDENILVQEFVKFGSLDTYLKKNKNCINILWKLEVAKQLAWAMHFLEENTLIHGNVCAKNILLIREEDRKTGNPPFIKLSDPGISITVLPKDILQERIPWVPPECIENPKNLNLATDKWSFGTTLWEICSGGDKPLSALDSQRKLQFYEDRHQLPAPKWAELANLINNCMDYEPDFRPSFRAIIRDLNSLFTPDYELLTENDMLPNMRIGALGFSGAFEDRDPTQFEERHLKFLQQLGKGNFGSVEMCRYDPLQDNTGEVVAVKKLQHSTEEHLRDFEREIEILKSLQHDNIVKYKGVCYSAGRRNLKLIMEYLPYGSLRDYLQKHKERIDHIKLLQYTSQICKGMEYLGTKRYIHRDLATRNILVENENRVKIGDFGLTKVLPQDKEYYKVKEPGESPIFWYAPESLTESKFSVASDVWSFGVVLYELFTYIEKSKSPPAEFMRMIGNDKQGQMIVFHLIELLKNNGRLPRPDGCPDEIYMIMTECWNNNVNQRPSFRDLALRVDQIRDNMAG
T3 sequence (Q96GD4 whole entry): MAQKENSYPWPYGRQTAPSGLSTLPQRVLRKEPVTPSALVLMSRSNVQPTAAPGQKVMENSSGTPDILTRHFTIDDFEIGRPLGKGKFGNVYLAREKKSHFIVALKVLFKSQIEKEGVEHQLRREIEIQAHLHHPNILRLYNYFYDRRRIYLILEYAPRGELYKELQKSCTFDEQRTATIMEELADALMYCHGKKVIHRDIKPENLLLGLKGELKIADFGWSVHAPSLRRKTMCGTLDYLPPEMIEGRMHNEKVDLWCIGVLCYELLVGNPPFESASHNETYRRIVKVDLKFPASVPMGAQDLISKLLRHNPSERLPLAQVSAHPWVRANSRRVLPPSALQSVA
T2 sequence (Q05397 whole entry): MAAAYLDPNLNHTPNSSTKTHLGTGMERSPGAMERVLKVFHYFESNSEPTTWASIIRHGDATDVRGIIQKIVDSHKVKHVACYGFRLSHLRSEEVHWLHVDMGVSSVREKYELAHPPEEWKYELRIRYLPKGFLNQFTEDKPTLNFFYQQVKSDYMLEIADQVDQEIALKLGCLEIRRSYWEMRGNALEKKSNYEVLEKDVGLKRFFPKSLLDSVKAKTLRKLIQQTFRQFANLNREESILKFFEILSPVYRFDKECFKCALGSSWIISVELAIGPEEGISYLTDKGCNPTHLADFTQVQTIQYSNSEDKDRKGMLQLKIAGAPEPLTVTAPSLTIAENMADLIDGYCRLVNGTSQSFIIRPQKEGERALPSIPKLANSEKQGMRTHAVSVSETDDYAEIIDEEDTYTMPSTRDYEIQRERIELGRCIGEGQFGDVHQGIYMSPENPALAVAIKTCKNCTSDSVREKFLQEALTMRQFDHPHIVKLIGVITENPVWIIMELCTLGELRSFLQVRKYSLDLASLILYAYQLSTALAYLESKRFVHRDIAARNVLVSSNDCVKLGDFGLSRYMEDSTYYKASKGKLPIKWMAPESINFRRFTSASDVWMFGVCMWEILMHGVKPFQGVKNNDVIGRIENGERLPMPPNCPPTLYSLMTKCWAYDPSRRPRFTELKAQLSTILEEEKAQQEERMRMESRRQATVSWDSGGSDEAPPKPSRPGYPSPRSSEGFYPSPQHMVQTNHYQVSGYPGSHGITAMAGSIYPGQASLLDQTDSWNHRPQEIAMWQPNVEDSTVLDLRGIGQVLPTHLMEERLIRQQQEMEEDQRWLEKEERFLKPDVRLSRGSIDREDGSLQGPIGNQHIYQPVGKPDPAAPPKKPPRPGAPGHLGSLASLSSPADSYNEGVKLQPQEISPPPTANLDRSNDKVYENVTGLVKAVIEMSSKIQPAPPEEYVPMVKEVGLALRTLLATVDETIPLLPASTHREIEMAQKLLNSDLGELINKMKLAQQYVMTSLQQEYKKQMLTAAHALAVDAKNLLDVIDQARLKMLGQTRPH

Structure (SMILES) | IC50 [1] [µM] | EC50 [2] [µM] | EC50 [7] [µM] | also measured
CNC(=O)c1ccccc1Nc1cc(Nc2ccc(N3CCOCC3)cc2OC)ncc1C(F)(F)F [PND-1186] | – | – | – | pharmacokinetics (PK) [3]: promising; duration of inhibition of tumor FAK Tyr-397 phosphorylation [4]: 12 h; syngeneic murine 4T1 orthotopic breast carcinoma tumor growth and spontaneous metastasis to lungs ([5]; mouse, in vivo): significantly inhibited
CC(C)Cc1ccc([C@@H](C)C(=O)NS(C)(=O)=O)cc1 [Repertaxin] | – | – | – | CSC population [6]: selectively depleted
CN(c1ccccc1Cn1ccc2cnc(Nc3ccc4c(c3)CC(=O)N4)nc21)S(C)(=O)=O [Example 513] | < 0.02 | > 1 | – | IC50 [8]: < 0.02 µM; IC50 [9]: < 0.02 µM
O=C1CCc2cc(Nc3ncc4ccn(Cc5ccccc5OC(F)F)c4n3)ccc2N1 [Example 18] | < 0.02 | > 1 | – | IC50 [8]: < 0.02 µM
CNC(=O)c1ccccc1Nc1nc(Nc2ccc(N3CCOCC3)cc2OC)ncc1Cl [NVP-TAE226] | – | – | – | Inhibition of FAK autophosphorylation at Tyrosine397 and Akt phosphorylation at Serine473 [10]: observed in a dose-dependent manner; 4T1 murine breast tumor growth and metastasis to the lung ([5]; oral administration, dose-dependent): inhibited; body weight loss ([11]; MIA PaCa-2 model): no body weight loss; MIA PaCa-2 human pancreatic tumor growth [11]: efficiently inhibited; IC50 [12]: 0.76 µM
CN(c1ccccc1Cn1ccc2cnc(Nc3ccc(NC(=O)C(C)(C)O)cc3)nc21)S(C)(=O)=O [Example 452] | – | > 1 | > 1 | –
CS(=O)(=O)c1cccc(CNc2nc(Nc3ccc4c(c3)CCC(=O)N4)ncc2C(F)(F)F)c1 [PF-573,228] | – | – | – | chemotactic and haptotactic migration [13]: inhibited; effect on cell proliferation and apoptosis [14]: minimal to no effect
CN(c1ncccc1CNc1nc(Nc2ccc3c(c2)CC(=O)N3)ncc1C(F)(F)F)S(C)(=O)=O [PF-562,271, N-methyl-N-(3-(((2-((2-oxoindolin-5-yl)amino)-5-(trifluoromethyl)pyrimidin-4-yl)amino)methyl)pyridin-2-yl)methanesulfonamide] | – | – | – | antitumor efficacy [15]: good antitumor efficacy and tumor regression; toxicity [15]: no observed toxicity
CC(=O)Nc1ccc(Nc2ncc3ccn(S(=O)(=O)c4cccc5cccnc45)c3n2)cc1 [Example 307] | < 0.02 | > 1 | – | IC50 [8]: < 0.02 µM; IC50 [9]: < 0.02 µM

Now from value to molecule, other results behind:

IC50 [1] [µM] | EC50 [2] [µM] | EC50 [7] [µM] | Structure (SMILES) | also measured
< 0.02 | > 1 | – | CN(c1ncccc1Cn1ccc2cnc(Nc3cccc(NC(=O)C(C)(C)O)c3)nc21)S(C)(=O)=O [Example 79] | –
– | > 1 | > 1 | Cn1cc(Nc2ncc3ccn(S(=O)(=O)c4ccccc4C#N)c3n2)cn1 [Example 317] | –
< 0.02 | > 1 | – | O=C1CCc2cc(Nc3ncc4ccn(S(=O)(=O)c5ccccc5OC(F)(F)F)c4n3)ccc2N1 [Example 43] | –
< 0.02 | > 1 | – | CN(c1ncccc1Cn1ccc2cnc(Nc3ccc(N4CCOCC4)cc3)nc21)S(C)(=O)=O [Example 76] | –
< 0.02 | > 1 | > 1 | CN(c1ccccc1Cn1ccc2cnc(Nc3ccc(C(=O)NCC(C)(C)O)c(F)c3)nc21)S(C)(=O)=O [Example 508] | –
< 0.02 | > 1 | – | O=S(=O)(c1cccc2cccnc12)n1ccc2cnc(Nc3ccc(N4CCC(O)CC4)cc3)nc21 [Example 310] | IC50 [8]: < 0.02 µM; IC50 [9]: < 0.02 µM
– | > 1 | > 1 | CN(c1ncccc1Cn1ccc2cnc(Nc3ccc(N4CCN(C5CC5)CC4)cc3)nc21)S(C)(=O)=O [Example 659] | –
< 0.02 | < 0.02 | > 1 | CN(c1ncccc1Cn1ccc2cnc(Nc3ccc(N4CCNCC4)c(F)c3)nc21)S(C)(=O)=O [Example 195] | –
> 1 | > 1 | > 1 | N#Cc1ccccc1S(=O)(=O)n1ncc2cnc(Nc3ccc(N4CCNCC4)cc3)cc21 [Example 191] | –
< 0.02 | > 1 | – | CN(c1ncccc1Cn1ccc2cnc(Nc3cccc(N4CCNCC4)c3)nc21)S(C)(=O)=O [Example 176] | IC50 [8]: < 0.02 µM
– | > 1 | > 1 | CN(c1ncccc1Cn1ccc2cnc(Nc3ccc(-c4cc[nH]c(=O)c4)cc3)nc21)S(C)(=O)=O [Example 669] | –
